Series [1] in a line: Pharmacokinetics of apixaban in rats, alone and with palbociclib. The format is in vivo, Sprague-Dawley rats.
The next series deals with BCRP (Abcg2). Kind of series: qRT-PCR mRNA expression in rat liver and intestine after palbociclib for 8 days. It is filed as in vivo. To be noted: palbociclib for eight consecutive days vs blank control.
Another series relates to P-gp (Abcb1a). Described as above. It is filed as in vivo. To be noted: palbociclib for eight consecutive days vs blank control.
Series [2] can be described thus: Pharmacokinetics of palbociclib in rats, alone and with apixaban or rivaroxaban. It is filed as in vivo, Sprague-Dawley rats.
Series [3] is described as follows: Pharmacokinetics of rivaroxaban in rats, alone and with palbociclib. It is filed as in vivo, Sprague-Dawley rats.
The mark [4] stands for this setting: apixaban 0.25 mg/kg alongside palbociclib, rats, no statistical significance.
[5] abbreviates: apixaban 0.5 mg/kg with simultaneous palbociclib vs apixaban-only group, rats.
[6] abbreviates: apixaban 0.5 mg/kg with simultaneous palbociclib vs control group, rats.
Where [7] appears, read: palbociclib co-administered with apixaban vs palbociclib alone, rats.
[8] abbreviates: palbociclib co-administered with rivaroxaban vs palbociclib alone, rats.
[9] abbreviates: SD rats, oral, rivaroxaban 2 mg/kg alone, geometric mean (GSD) (geometric CV%).
[10] abbreviates: male, Sprague-Dawley, rat, plasma, po, 2 mg/kg.
Where [11] appears, read: rivaroxaban 1 mg/kg + multiple doses of palbociclib compared with rivaroxaban 2 mg/kg, rats.

Data on three molecules can be found in publication PMC12396240 (Drug Design, Development and Therapy, 2025).

By AUC(0-t) is commonly meant exposure summed from dosing to a finite time, without extrapolation to infinity. A high value points to high exposure. As usually defined, the AUC(0-inf) is total exposure, with the tail of the curve extrapolated. Lower therefore signals low exposure. For orientation: Cmax means the highest concentration seen after dosing. The term MRT last denotes a mean duration of stay, worked out from the concentration-time curve. One may read the MRT inf as a mean duration of stay, worked out from the concentration-time curve. As usually defined, the Tmax is the time at which the peak concentration occurs. As a reminder, the half-life is how long it takes for the measured level to halve. A lower half-life goes with rapid decline.

The structures appear in SMILES notation. “Also recorded” adds a separate entry of the source.

As for `COc1ccc(-n2nc(C(N)=O)c3c2C(=O)N(c2ccc(N4CCCCC4=O)cc2)CC3)cc1` [Apixaban, apixaban], the CLz in series [1] (SD rats, oral, apixaban 0.5 mg/kg alone, geometric mean (GSD) (geometric CV%)) is reported as 0.86(GSD 1.49) (110.3%) L/h/kg. Besides, the “differences for CLz/F, Tmax, t1/2, Vz/F, MRT0-t and MRT0-∞ of apixaban” value in series [1] (apixaban 0.25 mg/kg alongside palbociclib, rats) is given as “no significant differences”. Further, in series [1] (setting [4]), the “increase in AUC0-t of apixaban” value stood at 43.35%, the “increase in AUC0-∞ of apixaban” value was determined as 43.49% and the “increase in Cmax of apixaban” value is on record as 45.03%. In series [1] (setting [5]), the “increase in AUC0-t of apixaban” value is given as 258.36%, the “increase in AUC0-∞ of apixaban” value turned out to be 256.64% and the “increase in Cmax of apixaban” value was 243.61%. Further, in series [1] (setting [6]), the “decrease in apparent volume of distribution Vz/F of apixaban” value came out at 73.73% and the “decrease in clearance CLz/F of apixaban” value is listed as 72.53%. Besides, the “effect on pharmacokinetic parameters of apixaban” value in series [1] (apixaban and palbociclib given 12 hours apart, rats) is on record as “no significant pharmacokinetic changes; also recorded: not affected”. In series [1] (male, Sprague-Dawley, rat, plasma, po, 0.5 mg/kg, AUC0-t, SD rats, apixaban 0.5 mg/kg alone, geometric mean (GSD) (geometric CV%)), this molecule returned an AUC(0-t) of 579 ng·h/mL. Also, the AUC(0-inf) in series [1] (male, Sprague-Dawley, rat, plasma, po, 0.5 mg/kg, AUC0-∞, SD rats, apixaban 0.5 mg/kg alone, geometric mean (GSD) (geometric CV%)) worked out at 583 ng·h/mL. The same molecule returned a Cmax in series [1] (male, Sprague-Dawley, rat, plasma, po, 0.5 mg/kg, Cmax, SD rats, apixaban 0.5 mg/kg alone, geometric mean (GSD) (geometric CV%)) of 243 ng/mL. This molecule registered an MRT last in series [1] (male, Sprague-Dawley, rat, plasma, po, 0.5 mg/kg, MRT0-t, SD rats, apixaban 0.5 mg/kg alone, geometric mean (GSD) (geometric CV%)) of 1.83 h. In addition, the MRT inf in series [1] (male, Sprague-Dawley, rat, plasma, po, 0.5 mg/kg, MRT0-∞, SD rats, apixaban 0.5 mg/kg alone, geometric mean (GSD) (geometric CV%)) stood at 1.92 h. In addition, the time to peak (Tmax) in series [1] (male, Sprague-Dawley, rat, plasma, po, 0.5 mg/kg, Tmax, SD rats, apixaban 0.5 mg/kg alone, geometric mean (GSD) (geometric CV%)) stood at 0.53 h.
With `CC(=O)c1c(C)c2cnc(Nc3ccc(N4CCNCC4)cn3)nc2n(C2CCCC2)c1=O` [Palbociclib, palbociclib], in the series with BCRP (Abcg2) (intestine), the “effect on BCRP mRNA expression” value is “no significant inhibition”. Further, the “decrease of BCRP mRNA expression” value in the series with BCRP (Abcg2) (liver) worked out at 31.66%. The “downregulation of P-gp mRNA expression” value with P-gp (Abcb1a) (intestine) is recorded as 20.17%. Besides, the “effect on P-gp mRNA expression” value with P-gp (Abcb1a) (liver) is “no significant effect”. The molecule further returned an exposure AUC(0-t) in series [2] (male, Sprague-Dawley, rat, plasma, po, 11 mg/kg, AUC0-t, SD rats, palbociclib 11 mg/kg alone, geometric mean (GSD) (geometric CV%)) of 4340 ng·h/mL. The molecule also displayed an AUC(0-inf) in series [2] (male, Sprague-Dawley, rat, plasma, po, 11 mg/kg, AUC0-∞, SD rats, palbociclib 11 mg/kg alone, geometric mean (GSD) (geometric CV%)) of 4350 ng·h/mL. In series [2] (male, Sprague-Dawley, rat, plasma, po, 11 mg/kg, Cmax, SD rats, palbociclib 11 mg/kg alone, geometric mean (GSD) (geometric CV%)), this molecule gave a Cmax of 469 ng/mL. In series [2] (male, Sprague-Dawley, rat, plasma, po, 11 mg/kg, MRT0-t, SD rats, palbociclib 11 mg/kg alone, geometric mean (GSD) (geometric CV%)), this molecule yielded an MRT last of 7.33 h. The molecule also displayed an MRT inf in series [2] (male, Sprague-Dawley, rat, plasma, po, 11 mg/kg, MRT0-∞, SD rats, palbociclib 11 mg/kg alone, geometric mean (GSD) (geometric CV%)) of 7.39 h. For the same molecule, the Tmax in series [2] (male, Sprague-Dawley, rat, plasma, po, 11 mg/kg, Tmax, SD rats, palbociclib 11 mg/kg alone, geometric mean (GSD) (geometric CV%)) amounted to 2.83 h. The half-life in series [2] (male, Sprague-Dawley, rat, plasma, po, 11 mg/kg, t1/2, SD rats, palbociclib 11 mg/kg alone, geometric mean (GSD) (geometric CV%)) is 3.99 h. In addition, in series [2] (setting [7]), the “increase in AUC0-t of palbociclib” value stood at 24.75%, the “increase in AUC0-∞ of palbociclib” value is recorded as 24.83% and the “increase in Cmax of palbociclib” value was determined as 49.30%. In series [2] (setting [8]), the “increase in AUC0-t of palbociclib” value came to 32.94% and the “increase in AUC0-∞ of palbociclib” value turned out to be 33.13%.
Regarding `O=C(NC[C@H]1CN(c2ccc(N3CCOCC3=O)cc2)C(=O)O1)c1ccc(Cl)s1` [Rivaroxaban, rivaroxaban], in series [3] (setting [9]), the CLz was 0.69(GSD 1.20) (65.6%) L/h/kg and the Vz was 2.13(GSD 1.55) (118.4%) L/kg. In series [3] (setting [10]), the MRT inf amounted to 3.67 h and the MRT last is 3.32 h. Further, in series [3] (male, Sprague-Dawley, rat, plasma, po, 2 mg/kg, AUC0-t, SD rats, rivaroxaban 2 mg/kg alone, geometric mean (GSD) (geometric CV%)), the AUC(0-t) turned out to be 691 ng·h/mL. Besides, the AUC(0-inf) in series [3] (male, Sprague-Dawley, rat, plasma, po, 2 mg/kg, AUC0-∞, SD rats, rivaroxaban 2 mg/kg alone, geometric mean (GSD) (geometric CV%)) was determined as 722 ng·h/mL. Moreover, the Tmax in series [3] (male, Sprague-Dawley, rat, plasma, po, 2 mg/kg, Tmax, SD rats, rivaroxaban 2 mg/kg alone, geometric mean (GSD) (geometric CV%)) amounted to 1.02 h. Besides, in series [3] (setting [11]), the “decrease in MRT0-t of rivaroxaban” value is 27.82%, the “decrease in MRT0-∞ of rivaroxaban” value stood at 35.43%, the “decrease in apparent volume of distribution Vz/F of rivaroxaban” value was 77.46% and the “decrease in clearance CLz/F of rivaroxaban” value is recorded as 60.87%. In addition, in series [3] (setting [11]), the “differences for Tmax and t1/2 of rivaroxaban” value is “no significant differences”; the “increase in AUC0-t of rivaroxaban” value was found to be 161.86%; the “increase in AUC0-∞ of rivaroxaban” value is recorded as 150.93%; the “increase in Cmax of rivaroxaban” value was determined as 243.63%. Further, the “effect on pharmacokinetic parameters of rivaroxaban” value in series [3] (rivaroxaban and palbociclib given 12 hours apart, rats) is “no significant pharmacokinetic changes; also recorded: not affected”.
